# Source: patent EP1171107B1, “USE OF A PHARMACEUTICAL COMPOSITION IN THE MANUFACTURE OF A MEDICAMENT FOR THE TREATMENT OF PATHOLOGICAL CONDITIONS OF THE EYE CAUSED BY BACTERIA, VIRUSES, FUNGI, YEASTS AND PROTOZOA” (Dr. GERHARD MANN chem.-pharm. Fabrik GmbH, priority 1999, dated 2000)
# Structures can show the parent of a compound that is named as a salt.
# Key:
# Format in all cases: cell-based
# Sc. pneumoniae [1] = assay: Qualitative examination: enrichment of the inoculated test preparation in broth
# How it was run: (§1)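 Growth/no growth after broth enrichment read out; negative enrichment taken as elimination of inoculum. Inoculum ca. 10^5 CFU/ml in 5 ml test substance, contact 2–72 h, then centrifugation wash in NaCl-peptone buffer, 2 ml into 20 ml Caso broth or Fildes medium, ≤4 d, 33±2°C.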
# S.epidermidis [2] = assay: as above
# How it was run: as §1
# S.aureus = assay: as above
# How it was run: as §1
# E.coli [3] = assay: as above
# How it was run: as §1
# P.aeruginosa [4] = assay: Quantitative germ count (re-isolation, surface method) after inoculating the test preparation; conditions: Ausgangskeimzahl 2,7 x 10^5 KBE/ml
# How it was run: (§2)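 Test preparations (5 ml) inoculated with ca. 10^5 CFU/ml of each strain, one tube per time point. After 2, 6, 8, 24, 32, 48 and 72 h, cells pelleted, washed and resuspended in NaCl-peptone buffer, then spiral-plated on Caso agar and incubated at 33±2 °C up to 4 days. Detection limit 100 CFU/ml.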
# S.epidermidis [5] = assay: as above; conditions: Ausgangskeimzahl 2,1 x 10^5 KBE/ml
# How it was run: as §2
# P.aeruginosa [6] = assay: Qualitative examination: enrichment of the inoculated test preparation in broth
# How it was run: as §1
# H.influenzae [7] = assay: as above
# How it was run: as §1
# Sc. pneumoniae [8] = assay: Quantitative germ count (re-isolation, surface method) after inoculating the test preparation; conditions: Ausgangskeimzahl 3,7 x 10^5 KBE/ml
# How it was run: as §2
# H.influenzae [9] = assay: as above; conditions: Ausgangskeimzahl 2,8 x 10^5 KBE/ml
# How it was run: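 Surviving germs were counted by the surface method: an aliquot was spiral-plated on Kochblut-Agar and incubated at 33±2°C for max. 4 Tage, giving re-isolated counts in KBE/ml with a detection limit of 100 KBE/ml. Initial germ counts were also set by spiral-plater surface plating. The H. influenzae strain was pretested biochemically for identity and purity.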
# E.coli [10] = assay: as above; conditions: Ausgangskeimzahl 2,7 x 10^5 KBE/ml
structure (smiles),measurement,setting,value
"O=C(O)c1cn(C2CC2)c2cc(N3CCNCC3)c(F)cc2c1=O [Ciprofloxacin HCl 0,35 Gew.-%, Ciprofloxacin HCl, reference compound]",Ergebnis der Reisolierung qualitiativ (+/-) nach Anreicherung,Sc. pneumoniae [1]; 2 h after inoculation,-
same,Ergebnis der Reisolierung qualitiativ (+/-) nach Anreicherung,Sc. pneumoniae [1]; 4 h after inoculation,-
same,Ergebnis der Reisolierung qualitiativ (+/-) nach Anreicherung,Sc. pneumoniae [1]; 6 h after inoculation,-
same,Ergebnis der Reisolierung qualitiativ (+/-) nach Anreicherung,Sc. pneumoniae [1]; 8 h after inoculation,-
same,Ergebnis der Reisolierung qualitiativ (+/-) nach Anreicherung,Sc. pneumoniae [1]; 24 h after inoculation,-
same,Ergebnis der Reisolierung qualitiativ (+/-) nach Anreicherung,Sc. pneumoniae [1]; 32 h after inoculation,-
same,Ergebnis der Reisolierung qualitiativ (+/-) nach Anreicherung,Sc. pneumoniae [1]; 48 h after inoculation,-
same,Ergebnis der Reisolierung qualitiativ (+/-) nach Anreicherung,Sc. pneumoniae [1]; 72 h after inoculation,-
same,Ergebnis der Reisolierung qualitiativ (+/-) nach Anreicherung,S.epidermidis [2]; 2 h after inoculation,+
same,Ergebnis der Reisolierung qualitiativ (+/-) nach Anreicherung,S.epidermidis [2]; 4 h after inoculation,+
same,Ergebnis der Reisolierung qualitiativ (+/-) nach Anreicherung,S.epidermidis [2]; 6 h after inoculation,+
same,Ergebnis der Reisolierung qualitiativ (+/-) nach Anreicherung,S.epidermidis [2]; 8 h after inoculation,-
same,Ergebnis der Reisolierung qualitiativ (+/-) nach Anreicherung,S.epidermidis [2]; 24 h after inoculation,-
same,Ergebnis der Reisolierung qualitiativ (+/-) nach Anreicherung,S.epidermidis [2]; 32 h after inoculation,-
same,Ergebnis der Reisolierung qualitiativ (+/-) nach Anreicherung,S.epidermidis [2]; 48 h after inoculation,-
same,Ergebnis der Reisolierung qualitiativ (+/-) nach Anreicherung,S.epidermidis [2]; 72 h after inoculation,-
same,Ergebnis der Reisolierung qualitiativ (+/-) nach Anreicherung,S.aureus; 2 h after inoculation,+
same,Ergebnis der Reisolierung qualitiativ (+/-) nach Anreicherung,S.aureus; 4 h after inoculation,+
same,Ergebnis der Reisolierung qualitiativ (+/-) nach Anreicherung,S.aureus; 6 h after inoculation,+
same,Ergebnis der Reisolierung qualitiativ (+/-) nach Anreicherung,S.aureus; 8 h after inoculation,+
same,Ergebnis der Reisolierung qualitiativ (+/-) nach Anreicherung,S.aureus; 24 h after inoculation,-
same,Ergebnis der Reisolierung qualitiativ (+/-) nach Anreicherung,S.aureus; 32 h after inoculation,-
same,Ergebnis der Reisolierung qualitiativ (+/-) nach Anreicherung,S.aureus; 48 h after inoculation,-
same,Ergebnis der Reisolierung qualitiativ (+/-) nach Anreicherung,S.aureus; 72 h after inoculation,-
same,Ergebnis der Reisolierung qualitiativ (+/-) nach Anreicherung,E.coli [3]; 2 h after inoculation,-
same,Ergebnis der Reisolierung qualitiativ (+/-) nach Anreicherung,E.coli [3]; 4 h after inoculation,-
same,Ergebnis der Reisolierung qualitiativ (+/-) nach Anreicherung,E.coli [3]; 6 h after inoculation,-
same,Ergebnis der Reisolierung qualitiativ (+/-) nach Anreicherung,E.coli [3]; 8 h after inoculation,-
same,Ergebnis der Reisolierung qualitiativ (+/-) nach Anreicherung,E.coli [3]; 24 h after inoculation,-
same,Ergebnis der Reisolierung qualitiativ (+/-) nach Anreicherung,E.coli [3]; 32 h after inoculation,-
same,Ergebnis der Reisolierung qualitiativ (+/-) nach Anreicherung,E.coli [3]; 48 h after inoculation,-
same,Ergebnis der Reisolierung qualitiativ (+/-) nach Anreicherung,E.coli [3]; 72 h after inoculation,-
same,Ergebnis der Reisolierung (in KBE/ml),P.aeruginosa [4]; 2 h after inoculation,<100 KBE/ml
same,Ergebnis der Reisolierung (in KBE/ml),P.aeruginosa [4]; 4 h after inoculation,<100 KBE/ml
same,Ergebnis der Reisolierung (in KBE/ml),P.aeruginosa [4]; 6 h after inoculation,<100 KBE/ml
same,Ergebnis der Reisolierung (in KBE/ml),P.aeruginosa [4]; 8 h after inoculation,<100 KBE/ml
same,Ergebnis der Reisolierung (in KBE/ml),P.aeruginosa [4]; 24 h after inoculation,<100 KBE/ml
same,Ergebnis der Reisolierung (in KBE/ml),P.aeruginosa [4]; 32 h after inoculation,<100 KBE/ml
same,Ergebnis der Reisolierung (in KBE/ml),P.aeruginosa [4]; 48 h after inoculation,<100 KBE/ml
same,Ergebnis der Reisolierung (in KBE/ml),P.aeruginosa [4]; 72 h after inoculation,<100 KBE/ml
same,Ergebnis der Reisolierung (in KBE/ml),S.epidermidis [5]; 2 h after inoculation,<100 KBE/ml
same,Ergebnis der Reisolierung (in KBE/ml),S.epidermidis [5]; 4 h after inoculation,<100 KBE/ml
same,Ergebnis der Reisolierung (in KBE/ml),S.epidermidis [5]; 6 h after inoculation,<100 KBE/ml
same,Ergebnis der Reisolierung (in KBE/ml),S.epidermidis [5]; 8 h after inoculation,<100 KBE/ml
same,Ergebnis der Reisolierung (in KBE/ml),S.epidermidis [5]; 24 h after inoculation,<100 KBE/ml
same,Ergebnis der Reisolierung (in KBE/ml),S.epidermidis [5]; 32 h after inoculation,<100 KBE/ml
same,Ergebnis der Reisolierung (in KBE/ml),S.epidermidis [5]; 48 h after inoculation,<100 KBE/ml
same,Ergebnis der Reisolierung (in KBE/ml),S.epidermidis [5]; 72 h after inoculation,<100 KBE/ml
same,Ergebnis der Reisolierung qualitiativ (+/-) nach Anreicherung,P.aeruginosa [6]; 2 h after inoculation,-
same,Ergebnis der Reisolierung qualitiativ (+/-) nach Anreicherung,P.aeruginosa [6]; 4 h after inoculation,-
same,Ergebnis der Reisolierung qualitiativ (+/-) nach Anreicherung,P.aeruginosa [6]; 6 h after inoculation,-
same,Ergebnis der Reisolierung qualitiativ (+/-) nach Anreicherung,P.aeruginosa [6]; 8 h after inoculation,- -
same,Ergebnis der Reisolierung qualitiativ (+/-) nach Anreicherung,P.aeruginosa [6]; 24 h after inoculation,-
same,Ergebnis der Reisolierung qualitiativ (+/-) nach Anreicherung,P.aeruginosa [6]; 32 h after inoculation,-
same,Ergebnis der Reisolierung qualitiativ (+/-) nach Anreicherung,P.aeruginosa [6]; 48 h after inoculation,-
same,Ergebnis der Reisolierung qualitiativ (+/-) nach Anreicherung,P.aeruginosa [6]; 72 h after inoculation,-
same,Ergebnis der Reisolierung qualitiativ (+/-) nach Anreicherung,H.influenzae [7]; 2 h after inoculation,-
same,Ergebnis der Reisolierung qualitiativ (+/-) nach Anreicherung,H.influenzae [7]; 4 h after inoculation,-
same,Ergebnis der Reisolierung qualitiativ (+/-) nach Anreicherung,H.influenzae [7]; 6 h after inoculation,-
same,Ergebnis der Reisolierung qualitiativ (+/-) nach Anreicherung,H.influenzae [7]; 8 h after inoculation,-
same,Ergebnis der Reisolierung qualitiativ (+/-) nach Anreicherung,H.influenzae [7]; 24 h after inoculation,-
same,Ergebnis der Reisolierung qualitiativ (+/-) nach Anreicherung,H.influenzae [7]; 32 h after inoculation,-
same,Ergebnis der Reisolierung qualitiativ (+/-) nach Anreicherung,H.influenzae [7]; 48 h after inoculation,-
same,Ergebnis der Reisolierung qualitiativ (+/-) nach Anreicherung,H.influenzae [7]; 72 h after inoculation,-
same,Ergebnis der Reisolierung (in KBE/ml),Sc. pneumoniae [8]; 2 h after inoculation,<100 KBE/ml
same,Ergebnis der Reisolierung (in KBE/ml),Sc. pneumoniae [8]; 4 h after inoculation,<100 KBE/ml
same,Ergebnis der Reisolierung (in KBE/ml),Sc. pneumoniae [8]; 6 h after inoculation,<100 KBE/ml
same,Ergebnis der Reisolierung (in KBE/ml),Sc. pneumoniae [8]; 8 h after inoculation,<100 KBE/ml
same,Ergebnis der Reisolierung (in KBE/ml),Sc. pneumoniae [8]; 24 h after inoculation,<100 KBE/ml
same,Ergebnis der Reisolierung (in KBE/ml),Sc. pneumoniae [8]; 32 h after inoculation,<100 KBE/ml
same,Ergebnis der Reisolierung (in KBE/ml),Sc. pneumoniae [8]; 48 h after inoculation,<100 KBE/ml
same,Ergebnis der Reisolierung (in KBE/ml),Sc. pneumoniae [8]; 72 h after inoculation,<100 KBE/ml
same,Ergebnis der Reisolierung (in KBE/ml),H.influenzae [9]; 2 h after inoculation,<100 KBE/ml
same,Ergebnis der Reisolierung (in KBE/ml),H.influenzae [9]; 4 h after inoculation,<100 KBE/ml
same,Ergebnis der Reisolierung (in KBE/ml),H.influenzae [9]; 6 h after inoculation,<100 KBE/ml
same,Ergebnis der Reisolierung (in KBE/ml),H.influenzae [9]; 8 h after inoculation,<100 KBE/ml
same,Ergebnis der Reisolierung (in KBE/ml),H.influenzae [9]; 24 h after inoculation,<100 KBE/ml
same,Ergebnis der Reisolierung (in KBE/ml),H.influenzae [9]; 32 h after inoculation,<100 KBE/ml
same,Ergebnis der Reisolierung (in KBE/ml),H.influenzae [9]; 48 h after inoculation,<100 KBE/ml
same,Ergebnis der Reisolierung (in KBE/ml),H.influenzae [9]; 72 h after inoculation,<100 KBE/ml
same,Ergebnis der Reisolierung (in KBE/ml),E.coli [10]; 2 h after inoculation,<100 KBE/ml
same,Ergebnis der Reisolierung (in KBE/ml),E.coli [10]; 4 h after inoculation,<100 KBE/ml
same,Ergebnis der Reisolierung (in KBE/ml),E.coli [10]; 6 h after inoculation,<100 KBE/ml
same,Ergebnis der Reisolierung (in KBE/ml),E.coli [10]; 8 h after inoculation,<100 KBE/ml
same,Ergebnis der Reisolierung (in KBE/ml),E.coli [10]; 24 h after inoculation,<100 KBE/ml
same,Ergebnis der Reisolierung (in KBE/ml),E.coli [10]; 32 h after inoculation,<100 KBE/ml
same,Ergebnis der Reisolierung (in KBE/ml),E.coli [10]; 48 h after inoculation,<100 KBE/ml
same,Ergebnis der Reisolierung (in KBE/ml),E.coli [10]; 72 h after inoculation,<100 KBE/ml
